Reference: US11744246B2, “Preparation of mammalian oocyte for fertilization via a soluble human PH20 hyaluronidase polypeptide” (SYNGENTA PARTICIPATIONS AG, priority 2017, dated 2023)

Tests used:
Type in all cases: cell-based
[1] = tested on: Botryotinia fuckeliana (Botrytis cinerea); experiment: Botryotinia fuckeliana (Botrytis cinerea)/Liquid Culture (Gray Mould); details: 72 h, liquid culture, growth inhibition photometrically 3-4 days after application, compared to untreated control
[2] = tested on: Glomerella lagenarium (Colletotrichum lagenarium); experiment: Glomerella Lagenarium (Colletotrichum Lagenarium)/Liquid Culture (Anthracnose); details: Colletotrichum orbiculare, liquid culture, growth inhibition photometrically 3-4 days after application, compared to untreated control
[3] = tested on: Fusarium culmorum; experiment: microbe, parasite or virus in culture; details: 72 h, read-out: control of Fusarium culmorum
[4] = tested on: Monographella nivalis (Microdochium nivale); experiment: Monographella nivalis (Microdochium nivale)/Liquid Culture (Foot Rot Cereals); details: 96 h, liquid culture, growth inhibition photometrically 4-5 days after application, compared to untreated control
[5] = tested on: Magnaporthe grisea (Pyricularia oryzae); experiment: microbe, parasite or virus in culture; details: read-out: control of Magnaporthe grisea

Measured: inhibition of growth at 20 ppm

CC(COc1ccc(Cl)cc1)(CC(F)(F)F)C(=O)Nc1cnc2c(F)cccc2c1 (stereo not shown) [E.05, 2-[(4-chlorophenoxy)methyl]-4,4,4-trifluoro-N-(8-fluoro-3-quinolyl)-2-methyl-butanamide]
≥ 80%: all assays above

CC(COc1ccc(F)cc1)(CC(F)(F)F)C(=O)Nc1cnc2c(F)cccc2c1 (stereo not shown) [E.03, 4,4,4-trifluoro-2-[(4-fluorophenoxy)methyl]-N-(8-fluoro-3-quinolyl)-2-methyl-butanamide]
≥ 80%: all assays above

CC(COC1CCCCC1)(CC(F)(F)F)C(=O)Nc1cnc2c(F)cccc2c1 (stereo not shown) [E.08, 2-(cyclohexoxymethyl)-4,4,4-trifluoro-N-(8-fluoro-3-quinolyl)-2-methyl-butanamide]
≥ 80%: all assays above

CC(COc1cccc(F)c1)(CC(F)(F)F)C(=O)Nc1cnc2c(F)cccc2c1 (stereo not shown) [E.02, 4,4,4-trifluoro-2-[(3-fluorophenoxy)methyl]-N-(8-fluoro-3-quinolyl)-2-methyl-butanamide]
≥ 80%: all assays above

CC(COC1CCC1)(CC(F)(F)F)C(=O)Nc1cnc2c(F)cccc2c1 (stereo not shown) [E.07, 2-(cyclobutoxymethyl)-4,4,4-trifluoro-N-(8-fluoro-3-quinolyl)-2-methyl-butanamide]
≥ 80%: all assays above

CC1(OCC(C)(CC(F)(F)F)C(=O)Nc2cnc3c(F)cccc3c2)CCCC1 (stereo not shown) [E.06, 4,4,4-trifluoro-N-(8-fluoro-3-quinolyl)-2-methyl-2-[(1-methylcyclopentoxy)meth-yl]butanamide]
≥ 80%: all assays above

CC(C)(C)COCC(C)(CC(F)(F)F)C(=O)Nc1cnc2c(F)cccc2c1 (stereo not shown) [E.04, 2-(2,2-dimethylpropoxymethyl)-4,4,4-trifluoro-N-(8-fluoro-3-quinolyl)-2-methyl-butanamide]
≥ 80%: all assays above

CC(COc1ccccc1F)(CC(F)(F)F)C(=O)Nc1cnc2c(F)cccc2c1 (stereo not shown) [E.01, 4,4,4-trifluoro-2-[(2-fluorophenoxy)methyl]-N-(8-fluoro-3-quinolyl)-2-methyl-butanamide]
≥ 80%: all assays above
